Values quoted from earlier work, collected in patent US4639511A, “Des-19-leucine-calcitonin analogs” (Armour Pharmaceutical Company, priority 1985, dated 1987).
Positions of bridges follow the written chain, without caps; N, C: chain ends. No end group written: not given here.

Key:
[1] = literature values, Monikawa et al.
[2] = test system: serum calcium concentration; conditions: standard used in the rat assay

Row | Substance | hypocalcemic potency [1] | potency of the standard salmon calcitonin, independently determined [2]
1 | (1,7-α-L-aminosuberic acid)eel calcitonin | about 3400 IU/mg. | 
2 | eel calcitonin (CSNLSTCVLGKLSQELHKLQTYPRTDVGAGTP-NH2; disulfide 1-7; ends not checked; UniProt P01262 1-32, looked up) [synthetic eel calcitonin, synthetic eel calcitonin from Monikawa et al] | around 4300 IU/mg. | 
3 | salmon calcitonin [standard salmon calcitonin] |  | greater than 4,000 IU/mg
